Test results as given in ChEMBL document CHEMBL1177767, “The discovery and initial optimisation of pyrrole-2-carboxamides as inhibitors of p38alpha MAP kinase” (Bioorg Med Chem Lett, 2010).

Experiments:
Format in all cases: ADME, organism-based
[1] = Oral bioavailability in CD rat at 1 mg/kg after 7 hrs by LC-MS/MS analysis; details: in vivo
[2] = Clearance in CD rat at 1 mg/kg, iv and 1 mg/kg, po after 7 hrs by LC-MS/MS analysis; details: in vivo
[3] = Half life in CD rat at 1 mg/kg, iv and 1 mg/kg, po after 7 hrs by LC-MS/MS analysis; details: in vivo
[4] = Apparent volume of distribution at steady state in CD rat at 1 mg/kg, iv and 1 mg/kg, po after 7 hrs by LC-MS/MS analysis; details: in vivo, read-out: Vdss

## Cc1ccccc1C(=O)c1c[nH]c(C(=O)NCc2ccco2)c1
[1]
  bioavailability: 18%
[2]
  clearance: 56 mL/min/kg
[3]
  half-life: 9.6 min
[4]
  Vd: 0.931 L/kg
